From patent US12403167B2, “Phenylethanoid glycoside extract from Acanthus ilicifolius L., preparation method thereof and use as anti-liver injury medicament” (OCEAN UNIVERSITY OF CHINA, priority 2019, dated 2025)

Experiments:
[1] = system: CCl4-induced acute liver injury mice; experiment: Serum ALT, AST, SOD and MDA in CCl4-induced liver injury mice; type: in vivo; details: 150 mg/kg once/d for 3 days before CCl4; blood 8 h after CCl4; n = 8, x ± s
Protocol: (§1) Forty eight C57 mice (20-22 g) of both genders were supplied by the Experimental Animal Center of Hubei Province, China (NO. 42000600033017). The above 48 mice were randomly divided into 6 groups (8 mice each group), and the phenylethanoid glycoside extract of the present disclosure (the phenylethanoid glycoside group, APhGs) were intraperitoneally injected with the doses of 300 mg/kg (high dose group), 150 mg/kg (medium dose group), and 75 mg/kg (low dose group). The positive group was given silybin (150 mg/kg), and the normal group, as well as model group was given normal saline. All groups were treated as above once/d for 3 consecutive days. Two hours after the last administration, the normal group was intraperitoneally injected with 15 μL of olive oil/mouse, and the other groups were intraperitoneally injected with 15 μL of 50% CCl4 (diluted with olive oil 1:1)/mouse. Eight hours later, all the mice were anesthetized. Then blood was collected by cardiac puncture, and liver tissue was collected for testing biochemical indexes and making pathological sections.
The detection of alanine aminotransferase (ALT) and aspartate aminotransferase (AST) of serum samples from each group mice were conducted according to the instructions of ELISA kit for ALT and AST. The absorbances (OD values) of serum ALT and AST at 450 nm were obtained by a microplate reader. The ALT and AST enzyme activities were calculated based on the OD values.
The detection of superoxide dismutase (SOD) and malondialdehyde (MDA) of serum samples from each group of mice were conducted according to the instructions of ELISA kit for SOD and MDA. The OD values of serum SOD at 550 nm and MDA at 532 nm were obtained by a microplate reader, respectively. The SOD and MDA enzyme activities were calculated based on the OD values.
Immunohistochemical analysis software: Image-pro plus 6.0 (Media Cybernetics, Inc., Rockville, MD, USA); experimental data statistical software: GraphPad Prism 7. The results were represented by mean values ±standard deviation (x±s). The difference P<0.05 meant statistically significant.

[2] = system: CCl4-induced acute liver injury mice; experiment: SOD and MDA in liver tissue homogenate of CCl4-induced liver injury mice; type: in vivo; details: 150 mg/kg once/d for 3 days before CCl4; liver 8 h after CCl4; n = 8, x ± s
Protocol: as §1, with “Then blood was collected by cardiac puncture, and liver tissue was collected for testing biochemical indexes and making pathological sections.” left out
The detection of SOD and MDA of liver homogenate samples from each group mice were conducted according to the instructions of ELISA kit for SOD and MDA. The OD values of liver SOD at 550 nm and MDA at 532 nm were obtained by a microplate reader, respectively. The SOD and MDA enzyme activities were calculated based on the OD values. […]

L-02 hepatocytes = experiment: CCl4-induced L-02 hepatocyte damage, CCK-8 cell viability; type: cell-based; details: 20 μg/mL, 15 mM CCl4, 24 h, CCl4 model group 24.22±0.33%
Protocol: L-02 hepatocytes were provided by the China Center for Type Culture Collection (CCTCC). The L-02 hepatocytes were cultured in a medium containing 1640 complete culture medium and DMEM complete medium with 5% CO2 at a constant temperature (37° C.). The cells were harvested in the exponential growth phase. A suspension of 1×10^6 cells/mL was prepared, and then 100 μL of this suspension was added to each well of a 96-well plate with tested medium. The groups were divided into: normal group, negative control group, CCl4 model group, positive group (silybin), and high-, medium-, and low-dosage APhGs groups. After incubation for 24 h, the cells in the experimental group and the positive group were treated with different concentrations of APhGs and silybin. Both the CCl4 model group and the negative control group were added with the same amount of DMSO. Each treatment was repeated five times. […]
Determination of cell viability: 10 μL of CCK8 was added to each well to incubate at 37° C. for 2 h. The culture plates were measured with a microplate reader to obtain the absorbances at 450 nm. The cell viability values were calculated by the following formula: Cell viability (%)=(ODsample−ODblank)×100/(ODcontrol−ODblank)
ODsample was the absorbance of the experimental group, ODcontrol was the absorbance of the negative control group, ODblank was the absorbance of the blank control.

With `COc1cc(C2Oc3cc([C@H]4Oc5cc(O)cc(O)c5C(=O)[C@@H]4O)ccc3OC2CO)ccc1O` (stereo partly shown) [Positive group, silybin] the “serum ALT” value [1] was 736.27 U/L, the “serum AST” value [1] was 776.68 U/L and the “serum MDA” value [1] was 8.32 µM. The “serum SOD” value [1] was 743.47 U/mL, the “liver tissue MDA” value [2] was 0.56 ± 0.08 nmol/mg prot and the “liver tissue SOD” value [2] was 610.91 U/mg prot. It also gave a cell survival rate (L-02 hepatocytes) of 35.92±2.15%.
